In experiment [1] the test system is methylated UCHL1 promoter EGFP reporter in HCT116 cells. In words: UCHL1 promoter demethylation assay (EGFP expression, FACS) in HCT116. It is filed as cell-based, human. Conditions: 5 μM, 5 days, HCT116 with methylated pUCHL1 vector. On the procedure: Human colon cancer HCT116 (ATCC, VA, USA) cells were propagated in McCoy’s 5A medium (Euroclone, Milan, Italy) with 10% fetal bovine serum (FBS; Euroclone), 2 mM L-glutamine (Euroclone), and antibiotics (100 U/mL penicillin, 100 µg/mL streptomycin) (Euroclone). For the treatments with MC3353, 5-AZA, and DAC as positive controls, 2 × 10^4 cells were seeded in 6-well plates in triplicate. Cells were treated every 2 days, and the medium was changed. On day 5, cells were observed under a fluorescent microscope. The nuclei were counterstained with DAPI (10 μg/mL, Invitrogen, Tournai, Belgium).
Fluorescence of EGFP and DAPI in living cells was analyzed by Cytation™ 5 Cell Imaging Multi-Mode Reader (BioTeK, Milan, Italy).
Before the transfection, the pUMLIEP vector was linearized by with ClaI restriction enzyme (New England Biolabs, Milan, Italy) and then it was methylated by SssI-methylase (New England Biolabs, Milan, Italy) for 60 min. The methylated vector was transfected into HCT116 cells using Lipofectamine™2000 (Invitrogen, Monza, Italy) and Opti-MEM® (Gibco, Monza, Italy), and stably introduced clones were selected with puromycin (1.0 μg/mL, Sigma-Aldrich, Milan, Italy). The detailed protocol for the generation of cells highly responsive to DNA demethylating agents is described in [27].
Next, the demethylating activity of MC3353 was evaluated in cells transfected with luciferase and EGFP reporter genes driven by the UCHL1 promoter. The UCHL1 promoter is silenced by methylation in human colon cancer and can be demethylated by specific treatments, inducing expression of Metridia luciferase and EGFP reporter genes. In particular, the pUCHL1 vector, after methylation, was transfected into HCT116 colon cancer cells, and the stable clone was obtained by puromycin selection. Afterwards, cells were treated with 5-AZA (5 μM), with DAC (5 μM), or with MC3353 (0.1 μM) for 5 days. Such a low MC3353 dose was used because of its cytotoxicity at higher concentrations in long treatments.

For a further experiment, the system named is HCT116 cells. In words: MTT proliferation assay HCT116. Conditions: 24 and 48 h; MC3353 from 0.5 μM after 48 h; DAC at 10 μM. Type of experiment: cell-based, human. The procedure: (§1) The MTT [3-(4,5-dimethylthiazol-2-yl)-2,5-diphenyltetrazolium bromide] (Sigma-Aldrich, Milan, Italy) assay was used to determine the proliferation of HCT116 clone and DKO HCT116 cells after treatment with MC3353, 5-AZA, and DAC. 5 × 10^4 cells/well for both cell lines were plated in 24-well plate and treated, in duplicate, with compounds at several concentrations for 24 and 48 h of induction. After treatments, MTT solution was added for 3 h at 0.5 mg/mL, the purple formazan crystals were dissolved in DMSO (Sigma-Aldrich, Milan, Italy), and the absorbance was read at a wavelength of 570 nm with reader TECAN M-200.
For orientation: Tetrazolium assays rely on reduction of a dye to a coloured formazan, in cell work by metabolically active cells.

Experiment [2] deals with double DNMT knockout (DKO) HCT116 cells. In words: MTT proliferation assay DKO HCT116. It is filed as cell-based, human. The following applies: 24 and 48 h; MC3353 at 0.5 μM after 48 h; DAC, 5-AZA up to highest dose. On the procedure:
DKO HCT116 (ATCC, VA, USA) cells were propagated in Dulbecco’s modified Eagle medium (DMEM) (Euroclone, Milan, Italy) with 10% fetal bovine serum (FBS; Euroclone, Milan, Italy), 2 mM L-glutamine (Euroclone, Milan, Italy) and antibiotics (100 U/mL penicillin, 100 µg/mL streptomycin) (Euroclone, Milan, Italy).
as §1

Experiment [3] has as its system E-cadherin mRNA in HCT116 cells. In words: qPCR of E-cadherin in HCT116. It is filed as cell-based, human. The following applies: MC3353 0.1 μM 24 h; 5-AZA, DAC every 2 days for 5 days at 0.1, 1, 5 μM. An excerpt: (§2) RNAs were extracted by ReliaPrep™ RNA Tissue Miniprep (Promega, Madison, WI, USA) and reverse transcribed with PrimeScript RT Master Mix (Takara, Kusatsu, Shiga, Japan). cDNAs were amplified by a qPCR reaction using GoTaq qPCR Master Mix (Promega) and analyzed with the oligonucleotide pairs specific for the target genes. Relative amounts, determined with the 2^(−ΔCt) method, were normalized with respect to the human housekeeping gene L32. The primers used are as follows: L32 (forward: 5′-[…]-3′, reverse: 5′-[…]-3′), E-cadherin (forward: 5′-[…]-3′, reverse: 5′-[…]-3′), and MMP2 (forward: 5′-[…]-3′, reverse: 5′-[…]-3′).
(§3) Prompted by these findings, we investigated the ability of MC3353 to modulate EMT pathway, using 5-AZA and DAC as reference drugs. […] The levels of mRNA transcripts of E-cadherin and matrix metalloproteinase-2 (MMP2) were determined. E-cadherin is involved in the maintenance of the epithelial identity and in the control of tumor invasiveness, whereas MMP2, through degradation of type IV collagen, the most abundant component of the basement membrane, controls an essential step for metastatic progression of most cancers as well as for induction of angiogenesis.

Experiment [4] relates to E-cadherin mRNA in PC-3 cells. In words: qPCR of E-cadherin in PC-3. It is filed as cell-based, human. The following applies: MC3353 24 h; 5-AZA, DAC 5 days, effect from 1 to 5 μM.
Excerpt: as §2, §3
(In general: Real-time PCR tracks product formation cycle by cycle.)

Experiment [5] relates to MMP2 mRNA in HCT116 cells. In words: qPCR of MMP2 in HCT116. Type of experiment: cell-based, human. The following applies: MC3353 0.1 and 1 μM 24 h; 5-AZA, DAC 5 days, also at 0.1 to 1 μM.
Excerpt: as §2, §3

The test system of another experiment is MMP2 mRNA in PC-3 cells. In words: qPCR of MMP2 in PC-3. Type of experiment: cell-based, human. Conditions: MC3353 0.1 and 1 μM 24 h; 5-AZA, DAC 5 days, also at 0.1 to 1 μM.
Excerpt: as §2, §3

For the next experiment, the target named is T1, human DNMT1 (Homo sapiens, UniProt P26358).
T1 construct: His; made in house
In words: DNMT1 assay (radiolabeled SAM, Flashplate). It is filed as biochemical. The following applies: radioactivity assay; at least two independent experiments; read-out: EC50 ± SD, hDNMT1. On the procedure:
His-DNMT1 (182 kDa, human) was cloned, expressed, and purified as described by Lee et al.. The DNMT1 assay was performed according to Gros et al.. Briefly, the DNMT1 enzymatic assay is based on the use of radiolabeled SAM, and the methylation occurs in homogeneous phase in 384-well microplates. The reaction is performed with DNMT1 at the final concentration of 90 nM in a total volume of 10 μL including also the chemical compound to be tested at the desired concentration, 1.25 μM of SAM//[methyl-^3H] SAM (3TBq/mmol) mix in a ratio of 3:1 and 0.3 μM of biotinylated DNA duplex. DNMT1, as “maintenance” methyltransferase, requires hemimethylated DNA for the reaction. After 2 h incubation at 37 °C, 8 μL of the reaction’s solution is transferred into a streptavidin 96-well scintillant coated Flashplate^TM containing 190 μL of […] in 50 mM Tris-HCl (pH 7.4). The Flashplate^TM is then agitated at room temperature for 1 h and washed. The plate is read with TopCount (PerkinElmer, Villebon-sur-Yvette, France). The greater the DNMT1 inhibition, the lower will be the scintillation signal correlated to the incorporation of the tritiated methyl groups. In this assay, the negative and positive controls were defined as wells without enzyme and wells without any compound but just DMSO, respectively.

A further experiment concerns the target T2, human C-terminal DNMT3A (Homo sapiens, UniProt Q9Y6K1).
T2 construct: the C-terminal catalytic domain of human DNMT3A (hDNMT3A)
In words: DNMT3A restriction-based fluorescence assay. It is filed as biochemical. Conditions: fluorescent assay; C-terminal catalytic domain; read-out: EC50 ± SD, hDNMT3A. The procedure: DNMT3A enzyme inhibition was adapted from the restriction-based fluorescence assay protocol described in Ceccaldi et al.. Briefly, it is performed in a 384-well microplate in a total volume of 50 μL. An oligonucleotide labeled at the 5′ end with biotin is hybridized to his complementary strand labeled at the 3′ end with 6-carboxyfluorescein. The DNA duplex thus formed contains only one single CpG site overlapping with a restriction site of a methylation sensitive restriction enzyme. The duplex is transferred in the wells coated with avidin. Thus, the duplex is fixed to the plate. The methylation reaction is performed by adding human C-terminal DNMT3A at the final concentration of 4 ng/μL in a total volume of 50 μL in the presence of the chemical compound to be tested at the desired concentration and the cofactor SAM at the final concentration of 20 μM. After incubation (1 h at 37 °C), the plate is washed and the methylation sensitive restriction enzyme HpyCH4IV is added. After 1-h incubation at 37 °C, the plate is washed and the fluorescence measured with a PerkinElmer Envision Multilabel Plate Reader (PerkinElmer, Villebon-sur-Yvette, France). The data are expressed as a percentage of inhibition vs. log concentration (M). Data are normalized referring to the “restriction control” (wells coated with labeled duplex not treated nor exposed to DNMT3A, but only cleaved by HpyCH4IV) as the maximum of inhibition (100%) and to the “DMSO control” (wells coated with labeled duplex but treated just with 0.1% DMSO exposed to DNMT3A and then to HpyCH4IV) as the minimum of inhibition (0%; total methylation).

Each structure is given as a SMILES string.

T1 sequence (P26358 whole entry): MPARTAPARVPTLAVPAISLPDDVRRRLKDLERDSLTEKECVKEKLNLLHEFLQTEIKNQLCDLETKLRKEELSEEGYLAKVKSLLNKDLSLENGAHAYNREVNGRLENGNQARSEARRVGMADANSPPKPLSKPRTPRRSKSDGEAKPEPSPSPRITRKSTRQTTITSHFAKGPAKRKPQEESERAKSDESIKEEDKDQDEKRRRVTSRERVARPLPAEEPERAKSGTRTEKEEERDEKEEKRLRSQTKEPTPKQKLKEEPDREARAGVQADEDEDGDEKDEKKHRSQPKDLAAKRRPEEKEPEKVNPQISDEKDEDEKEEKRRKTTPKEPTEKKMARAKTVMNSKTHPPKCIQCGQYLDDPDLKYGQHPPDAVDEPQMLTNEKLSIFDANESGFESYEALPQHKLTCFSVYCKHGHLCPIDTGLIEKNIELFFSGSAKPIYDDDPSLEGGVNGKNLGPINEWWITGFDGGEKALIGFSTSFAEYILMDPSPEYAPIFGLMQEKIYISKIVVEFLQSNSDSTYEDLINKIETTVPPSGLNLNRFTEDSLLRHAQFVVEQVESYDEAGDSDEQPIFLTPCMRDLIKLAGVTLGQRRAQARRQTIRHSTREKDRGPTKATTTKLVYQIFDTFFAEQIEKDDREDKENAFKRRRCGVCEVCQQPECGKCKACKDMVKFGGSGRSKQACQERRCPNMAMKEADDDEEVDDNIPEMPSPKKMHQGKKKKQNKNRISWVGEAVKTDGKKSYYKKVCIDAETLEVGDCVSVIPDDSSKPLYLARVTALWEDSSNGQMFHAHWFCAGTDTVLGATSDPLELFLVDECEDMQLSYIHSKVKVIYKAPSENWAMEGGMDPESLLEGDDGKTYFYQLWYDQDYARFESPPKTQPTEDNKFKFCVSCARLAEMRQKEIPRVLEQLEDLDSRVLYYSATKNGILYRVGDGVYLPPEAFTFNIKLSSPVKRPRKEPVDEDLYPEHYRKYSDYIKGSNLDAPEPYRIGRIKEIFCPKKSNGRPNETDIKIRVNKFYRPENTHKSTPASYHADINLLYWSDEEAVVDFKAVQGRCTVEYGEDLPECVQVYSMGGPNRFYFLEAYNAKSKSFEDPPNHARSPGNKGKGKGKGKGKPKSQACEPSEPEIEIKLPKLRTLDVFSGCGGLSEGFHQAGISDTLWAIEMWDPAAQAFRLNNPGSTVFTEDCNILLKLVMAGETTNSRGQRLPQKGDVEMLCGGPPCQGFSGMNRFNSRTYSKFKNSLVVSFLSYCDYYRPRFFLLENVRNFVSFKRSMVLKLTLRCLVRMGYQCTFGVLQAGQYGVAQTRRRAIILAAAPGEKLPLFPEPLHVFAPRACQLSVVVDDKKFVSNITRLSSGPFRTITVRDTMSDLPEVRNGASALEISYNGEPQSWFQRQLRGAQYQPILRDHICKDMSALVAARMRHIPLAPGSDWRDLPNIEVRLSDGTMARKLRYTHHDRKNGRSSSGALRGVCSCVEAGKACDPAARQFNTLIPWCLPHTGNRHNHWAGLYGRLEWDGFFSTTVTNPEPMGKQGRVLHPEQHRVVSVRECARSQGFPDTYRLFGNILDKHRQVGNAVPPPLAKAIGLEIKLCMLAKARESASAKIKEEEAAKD
T2 sequence (Q9Y6K1 634-912 limits assumed): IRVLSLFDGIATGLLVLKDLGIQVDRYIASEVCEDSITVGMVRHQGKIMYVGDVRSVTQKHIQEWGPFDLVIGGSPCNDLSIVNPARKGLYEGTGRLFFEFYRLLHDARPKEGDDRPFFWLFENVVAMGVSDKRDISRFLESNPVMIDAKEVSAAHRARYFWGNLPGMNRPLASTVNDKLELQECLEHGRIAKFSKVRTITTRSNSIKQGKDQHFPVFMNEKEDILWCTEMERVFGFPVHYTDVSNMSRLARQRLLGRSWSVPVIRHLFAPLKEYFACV

Turning to `Nc1ncn([C@@H]2O[C@H](CO)[C@@H](O)[C@H]2O)c(=O)n1` [Compound 5-AZA, 5-azacytidine], in experiment [1], the “EGFP gene expression induction (FACS)” value amounted to 38.5%. Also, in the experiment with HCT116 cells, the “effect on HCT116 proliferation (MTT)” value is “negligible effect”. Further, the “effect on DKO HCT116 proliferation (MTT)” value in [2] was “weak effect”. Further, the “E-cadherin mRNA expression, HCT116” value in experiment [3] was “able to induce E-cadherin expression”. For the same molecule, the “E-cadherin mRNA expression, PC-3” value in experiment [4] was “able to induce E-cadherin expression”. In addition, in [5], the “MMP2 mRNA expression, HCT116” value is “increased MMP2 level”. Moreover, the “MMP2 mRNA expression, PC-3” value in the experiment on MMP2 mRNA in PC-3 cells is reported as “increased MMP2 level”.

Take `O=C(O)C(Cc1c[nH]c2ccccc12)N1C(=O)c2ccccc2C1=O` (stereo not drawn) [RG-108, reference compound]: the EC50 at human DNMT1 was 390 ± 50 µM; at human C-terminal DNMT3A, over 500 µM.

As usually defined, the EC50 is the midpoint of the concentration-response curve.

The record behind these values is article PMC6501426 (Clinical Epigenetics, 2019).
